In publication PMC7287882, “Dual miRNases for Triple Incision of miRNA Target: Design Concept and Catalytic Performance” (Molecules, 2020):

Legend:
miR-155 [1] = assay: Gel-retardation assay, hybridization with miR-155; assay type: binding; settings: 37 °C, 45 min, mean of 3
Excerpt: We carried out a comparative analysis of the hybridization properties of the developed DCs with the corresponding SCs, which were the products of the first stage of the DCs synthesis. As discussed above, each SC consisted of the corresponding oligonucleotide A, which was complementary to the 5′-region of the matching miRNA target, and the catalytic peptide [LRLRG]2, attached to the 5′-end of this oligonucleotide via a thiohexyl linker (linker 2). […] Indeed, the level of binding of DCs to their miRNA targets reached 96, 90, 75, 55% at equimolar concentration (1 μM), and 99, 96, 92 and 69% at 5-fold excess of DCs over miR-17, miR-18a, miR-21 and miR-155, respectively (Figure 2). […]
The reaction mixture (4 µL) containing 50 mM Tris-HCl, pH 7.0, 200 mM KCl and 1 mM EDTA, 100 cpm (Cherenkov’s counting) of [^32P]-miRNA, 1 μM unlabeled miRNA, a conjugate at a concentration ranging from 0.1 to 10 μM was incubated at 37 °C for 45 min and quenched by adding of a loading buffer (20% ficoll, 0.025% bromophenol blue, 0.025% xylene cyanol). […] Formation of the complex miRNA/conjugate was analyzed by electrophoresis in 15% native PAAG at 4 °C. The gels were analyzed using Molecular Imager FX. The extent of binding of conjugate to miRNA was determined as a ratio of radioactivity measured in the complex to the total radioactivity applied onto the gel lane.

miR-155 [2] = assay: Ribonuclease activity assay with DC or ON and RNase H, miR-155; assay type: biochemical
Description: (§1) It is known that DNA-like antisense oligonucleotides after binding to target RNAs form a substrate for intracellular endonuclease RNases H. RNA hydrolysis in RNA-DNA heteroduplex by RNase H1 occurs at a distance of 6–10 nucleotides from the 5′-end of RNA (approximately one turn of the helix). Our design of the Dual conjugates here was carried out in such a way to ensure that their heteroduplexes with the matching miRNA sequences could serve as potential substrates for RNase H. To achieve that, we ensured that the length of the oligonucleotide recognition motifs A and B within the DC was 8–10 nt, which was expected to be sufficient for interaction and cleavage by RNase H (see Figure 1 and Table 1). As indicated above, a few adenine aromatic basis within each recognition motifs A and B were replaced with 2-aminoadenines to enhance the hybridization ability of the DC with miRNA. […] In order to verify this, as well as to evaluate the ability of RNase H to contribute to the miRNA cleavage catalyzed by DC, we studied the kinetics of the target miRNA cleavage performed (1) by the DC alone; (2) by RNase H, when the target miRNA was hybridized with the nonconjugated Dual oligonucleotide (ON); and (3) by both DC and RNase H present in the same reaction mixture. The study was performed against miR-17, miR-155 and miR-21 using a 20-fold excess of DCs or respective oligonucleotides over the matching miRNA (see Table 1 for sequences).
Figure 6 Cleavage kinetics of 5′-[^32P]-labeled miRNAs by DCs and/or RNase H. (a,d,g). […]
(§2) The reaction mixture (10 µL) containing 20 mM Tris-HCl, pH 7.8, 40 mM KCl, 8 mM MgCl2, 1 mM DTT, 0.02 mg/mL BSA, 800 cpm (Cherenkov’s counting) of [^32P]-miRNA, 1 µM unlabeled miRNA, 20 µM either DC or Dual oligonucleotide was incubated at 37 °C for 20 min then RNase H (5 or 100 U/mL) was added and the mixture was further incubated for 48 h. Aliquots were taken at 0, 1, 6, 24 and 48 h then the reaction was quenched, RNA cleavage products were collected and analyzed as described above.

miR-21 = assay: Ribonuclease activity assay with DC or ON and RNase H, miR-21; assay type: biochemical
Description: as §1
Figure 6 Cleavage kinetics of 5′-[^32P]-labeled miRNAs by DCs and/or RNase H. (a,d,g). Radioautographs of 18% denaturing PAAG showing the profiles of cleavage of miR-17, miR-155 and miR-21, respectively. Duplexes formed by 5′-[^32P]-miRNA (1 µM) and DC or ON (20 µM) were incubated at 37 °C for 48–72 h. RNase H was taken in the concentration of 5 or 100 u/mL. Lanes Im and T1–imidazole ladder and partial RNA digestion with RNase T1, respectively; control–RNA was incubated in the absence of DC or ON and in the presence of RNase H (100 u/mL); (b,e,h) Time dependency of cleavage of miR-17, miR-155 and miR-21, respectively, by DCs and/or RNase H. Data are presented as mean ± s.e. *—indicates statistically significant difference with p < 0.05; (c,f,i). […]
as §2

Row | Substance | level of binding of DC to miRNA target (miR-155 [1]; 5-fold excess of DC over miRNA (1 µM), same buffer) | level of binding of DC to miRNA target (miR-155 [1]; equimolar, DC 1 µM : miRNA 1 µM, 50 mM Tris-HCl pH 7.0, 200 mM KCl, 1 mM EDTA) | maximum extent of cleavage with DC and RNase H relative to DC alone (miR-155 [2]) | total extent of cleavage in the complex with DC relative to the miRNA/ON complex (miR-155 [2]; RNase H 5 u/mL) | maximum extent of cleavage with DC and RNase H (miR-155 [2]; miRNA 1 µM, DC 20 µM, buffer (2), 37 °C, plateau) | increase in rate of cleavage by DC in the presence of RNase H (miR-21; RNase H 5 u/mL, versus DC alone) | total extent of cleavage by DC and RNase H (miR-21; RNase H 5 u/mL, miRNA 1 µM, DC 20 µM, buffer (2), 37 °C) | increase in rate of cleavage compared with DC alone (miR-21; RNase H 100 u/mL) | cleavage by DC and RNase H (miR-21; RNase H 100 u/mL, completed in the first hour of incubation)
1 | ACCCCTAT–linker 1–[GRLRL]2–linker 2–TTAGCATTAA [miRNA-155-DC, Dual oligonucleotide-peptide conjugate targeted to miR-155: catalytic peptide [LRLRG]2 between two 2-aminoadenine-containing oligodeoxyribonucleotides] | 69% | 55% | about 2 fold | ~1.5 fold | 75% | – | – | – | –
2 | TCAACATC–linker 1–[GRLRL]2–linker 2–GATAAGCTA [miRNA-21-DC, Dual oligonucleotide-peptide conjugate targeted to miR-21: catalytic peptide [LRLRG]2 between two 2-aminoadenine-containing oligodeoxyribonucleotides] | – | – | – | – | – | 4 fold | 40% | 20 fold | 100%
